The test system of this assay is PR1 gene. The assay can be described thus: PR1 gene expression by real-time PCR in rosette leaves of wild-type strain and bil3 mutant, treated or untreated with brassinolide. The format is in vivo, Arabidopsis thaliana. The settings on record: BL-treated bil3 mutant (BIL3 gene-overexpressing), compared with the wild-type strain; FIG. 7. The protocol:
Individuals of the wild-type strain and the bil3 mutant grown in the same way as in Example 1 were treated or untreated with brassinolide (BL), one type of BR, to prepare samples. Total RNA was extracted from the rosette leaf of each strain using RNeasy Plant Mini Kit (Qiagen N.V.). Next, cDNA was synthesized from the extracted total RNA using PrimeScript First-Strand cDNA Synthesis Kit (Takara Bio Inc.). Specific procedures for the total RNA extraction and the cDNA synthesis followed the protocol included in each kit. Subsequently, the expression of the PR1 gene was analyzed by real-time PCR with the synthesized cDNA as a template using primers PR1-RT-F represented by SEQ ID NO: 46 and PR1-RT-R represented by SEQ ID NO: 47, SYBR Premix EX Taq kit (Takara Bio Inc.) and a real-time PCR apparatus Thermal Cycler Dice (Takara Bio Inc.).
(Quantitative PCR measures a nucleic acid by following its amplification.)

Take `CC(C)[C@H](C)[C@@H](O)[C@H](O)[C@@H](C)[C@H]1CC[C@H]2[C@@H]3COC(=O)[C@H]4C[C@H](O)[C@H](O)C[C@]4(C)[C@H]3CC[C@]12C` [BL, brassinolide]: the “expression level of the PR1 gene, relative value with the BL-untreated wild-type strain as 1” value is “approximately 40 times”.

The values are drawn from patent US20140143910A1, “COMPOSITION THAT AUGMENTS PLANT DISEASE RESISTANCE AND/OR BRANCHING” (Riken, priority 2011, published 2014).
